This note sets out measurements from paper doi:10.1101/2020.04.28.066902v2 (bioRxiv, 2020).

The nature of the data set: Equilibrium peptide uptake in human OA cartilage explants. Format: in vitro ADME.

Entries after “also recorded” stand apart in the source; their conditions may differ.

As to RKKRRQRRR [TAT-PTD], the “partitioning coefficient with 500 mM NaCl vs untreated cartilage” value (500 mM NaCl added to the PBS, p=0.3, n=24) is “not”. For the same sequence, for the setting “cartilage degraded in 5 mM trypsin for 24 hours prior to uptake, p=0.045, n=24”, the “partitioning coefficient after trypsin treatment vs untreated cartilage” value is “reduced; also recorded: decreased partitioning coefficients; also recorded: decreased uptake”.
